Test results published in patent US7790724B2, “c-fms kinase inhibitors” (Janssen Pharmaceutica N.V., priority 2003, dated 2010).
pIC50: −log10 of the molar value. Counter-ions that a name gives are not always drawn. Like-named read-outs stand apart in the source and are kept apart here.

Biological target: T1, c-fms (Homo sapiens, UniProt P07333)
T1 construct: 3DP
Experiment: autophosphorylation, fluorescence polarization competition immunoassay for c-fms inhibition
Type: biochemical
Conditions: for inhibition at 10 µM: read-out: % Inhibition (at 10 μM); for inhibition at 2 µM: @ 2 μM compound (values marked *)
Experimental: The assay was performed in black 96-well microplates (LJL BioSystems). The assay buffer used was 100 mM HEPES, pH 7.5, 1 mM DTT, 0.01% (v/v) Tween-20. Compounds were diluted in assay buffer containing 4% DMSO just prior to the assay. […] The kinase reaction was initiated by adding 2 μL of 5 mM ATP (Sigma) in assay buffer. The final concentrations in the assay were 10 nM c-fms, 1 mM ATP, 5 mM MgCl2, 2% DMSO. Control reactions were ran in each plate: in positive and negative control wells, assay buffer (made 4% in DMSO) was substituted for the compound; in addition, positive control wells received 1.2 μL of 50 mM EDTA.
The plates were incubated at room temperature for 45 min. At the end of the incubation, the reaction was quenched with 1.2 μL of 50 mM EDTA (EDTA was not added to the positive control wells at this point; see above). Following a 5-min incubation, each well received 10 μL of a 1:1:3 mixture of anti-phosphotyrosine antibody, 10×, PTK green tracer, 10× (vortexed), FP dilution buffer, respectively (all from PanVera, cat. # P2837). The plate was covered, incubated for 30 min at room temperature and the fluorescence polarization was read on the Analyst. […] The reported IC50 values are averages of three independent measurements.

[1] = determined in a similar fashion for Examples 11-68, read-out: IC-50 (activites below 1 μM)
[2] = 10 nM c-fms, 1 mM ATP, averages of three independent measurements, read-out: IC50

T1 sequence (P07333 20-972): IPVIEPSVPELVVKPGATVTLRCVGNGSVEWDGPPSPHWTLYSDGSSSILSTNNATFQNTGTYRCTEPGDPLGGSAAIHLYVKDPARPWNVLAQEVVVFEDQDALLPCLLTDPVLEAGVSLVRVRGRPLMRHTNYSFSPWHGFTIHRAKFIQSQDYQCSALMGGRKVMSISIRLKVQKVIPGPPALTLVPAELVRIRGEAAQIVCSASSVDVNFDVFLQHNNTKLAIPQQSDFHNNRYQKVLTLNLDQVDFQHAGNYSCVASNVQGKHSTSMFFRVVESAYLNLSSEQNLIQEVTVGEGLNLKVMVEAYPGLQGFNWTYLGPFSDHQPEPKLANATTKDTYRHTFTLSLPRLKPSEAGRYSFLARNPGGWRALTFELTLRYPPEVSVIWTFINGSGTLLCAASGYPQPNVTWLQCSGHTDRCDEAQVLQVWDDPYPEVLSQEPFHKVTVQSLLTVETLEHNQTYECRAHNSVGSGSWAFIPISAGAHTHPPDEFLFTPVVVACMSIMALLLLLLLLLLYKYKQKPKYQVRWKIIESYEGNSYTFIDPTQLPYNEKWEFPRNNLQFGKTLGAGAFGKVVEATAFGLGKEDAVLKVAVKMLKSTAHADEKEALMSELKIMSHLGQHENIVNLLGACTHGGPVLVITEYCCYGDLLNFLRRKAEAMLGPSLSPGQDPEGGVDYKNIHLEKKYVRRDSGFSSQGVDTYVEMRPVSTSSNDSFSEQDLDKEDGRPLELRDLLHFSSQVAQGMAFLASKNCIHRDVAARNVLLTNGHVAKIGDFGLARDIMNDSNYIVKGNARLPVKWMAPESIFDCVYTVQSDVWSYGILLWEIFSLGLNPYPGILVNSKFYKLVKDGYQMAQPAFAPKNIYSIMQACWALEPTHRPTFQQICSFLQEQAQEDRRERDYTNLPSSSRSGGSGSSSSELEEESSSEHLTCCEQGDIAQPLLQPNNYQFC

| SMILES | pIC50 [2] | inhibition at 10 µM (at 10 μM compound) | other results |
| --- | --- | --- | --- |
| COC(C)(C)c1ccc(NC(=O)c2nc(C#N)c[nH]2)c(C2=CCCCC2)c1 [Example 13, 4-Cyano-1H-imidazole-2-carboxylic acid [2-cyclohex-1-enyl-4-(1-methoxy-1-methyl-ethyl)-phenyl]-amide] |  |  | pIC50 [1]: > 6.00 |
| Cc1cccc(N2CCCCC2)c1NC(=O)c1ccc(C#N)o1 | < 6.00 | 50% |  |
| N#Cc1ccc(C(=O)Nc2cc(CNCC(O)CO)ccc2N2CCCCC2)o1 (stereo not drawn) | > 6.00 |  | inhibition at 2 µM: 93% |
| N#Cc1ccc(C(=O)Nc2ccc(Cl)cc2N2CCCCC2)o1 | > 6.00 |  | inhibition at 2 µM: 90% |
| CC1(C)CC=C(c2ncccc2NC(=O)c2nc(C#N)c[nH]2)CC1 [Example 42, 4-Cyano-1H-imidazole-2-carboxylic acid [2-(4,4-dimethyl-cyclohex-1-enyl)-pyridin-3-yl]-amide trifluoroacetic acid salt] |  |  | pIC50 [1]: > 6.00 |
| CC1(C)CCN(c2ncccc2NC(=O)c2nc(C#N)c[nH]2)CC1 [Example 63, 4-Cyano-1H-imidazole-2-carboxylic acid (4,4-dimethyl-3,4,5,6-tetrahydro-2H-[1,2′]bipyridinyl-3′-yl)-amide trifluoroacetic acid salt] |  |  | pIC50 [1]: > 6.00 |
| CC1(C)CC=C(c2ccccc2NC(=O)c2nc(C#N)c[nH]2)CC1 [Example 67, 4-Cyano-1H-imidazole-2-carboxylic acid [2-(4,4-dimethyl-cyclohex-1-enyl)-phenyl]-amide] |  |  | pIC50 [1]: > 6.00 |
| N#Cc1ccc(C(=O)Nc2ccccc2N2CCC(CO)CC2)o1 | > 6.00 |  | inhibition at 2 µM: 93% |
| N#Cc1ccc(C(=O)Nc2c(F)cccc2N2CCCCC2)o1 | < 6.00 | 61% |  |
| CC1CCN(c2ccccc2NC(=O)c2nc(C#N)c[nH]2)CC1 [Example 41, 4-Cyano-1H-imidazole-2-carboxylic acid [2-(4-methyl-piperidin-1-yl)-phenyl]-amide trifluoroacetic acid salt] |  |  | pIC50 [1]: > 6.00 |
| N#Cc1ccc(C(=O)Nc2ccc(F)cc2N2CCCCC2)o1 | > 6.00 |  | inhibition at 2 µM: 94% |
| O=C(Nc1ccccc1N1CCCCC1)c1cc([N+](=O)[O-])n[nH]1 | < 6.00 |  | inhibition at 2 µM: 50% |
| CC(C)(O)c1ccc(NC(=O)c2nc(C#N)c[nH]2)c(C2=CCCCC2)c1 [Example 12, 4-Cyano-1H-imidazole-2-carboxylic acid [2-cyclohex-1-enyl-4-(1-hydroxy-1-methyl-ethyl)-phenyl]-amide] |  |  | pIC50 [1]: > 6.00 |
| O=C(Nc1ccccc1N1CCC(O)CC1)c1ccc([N+](=O)[O-])o1 | > 6.00 | 98% |  |
| O=C(Nc1ccccc1N1CCCCC1)c1ccc([N+](=O)[O-])o1 |  | 91% |  |
| O=C(Nc1ccccc1N1CCCCC1)c1cc([N+](=O)[O-])c[nH]1 | > 6.00 | 99% |  |
| O=C(Nc1ccccc1N1CCOCC1)c1ccc([N+](=O)[O-])o1 | < 6.00 | 89% |  |
| CC(C)c1ccc(NC(=O)c2nc(C#N)c[nH]2)c(C2=CCCCC2)c1 [Example 22, 4-Cyano-1H-imidazole-2-carboxylic acid (2-cyclohex-1-enyl-4-isopropyl-phenyl)-amide] |  |  | pIC50 [1]: > 6.00 |
| CC(=O)c1ccc(C(=O)Nc2ccccc2N2CCCCC2)s1 | < 6.00 | 60% |  |
| CS(=O)(=O)NCc1ccc(N2CCCCC2)c(NC(=O)c2ccc(C#N)o2)c1 | > 6.00 |  | inhibition at 2 µM: 100% |
| CC(C)(N)c1ccc(NC(=O)c2nc(C#N)c[nH]2)c(C2=CCCCC2)c1 [Example 14, 4-Cyano-1H-imidazole-2-carboxylic acid [4-(1-amino-1-methyl-ethyl)-2-cyclohex-1-enyl-phenyl]-amide, acetic acid salt] |  |  | pIC50 [1]: > 6.00 |
| O=C(O)c1ccc(C(=O)Nc2ccccc2N2CCCCC2)o1 | < 6.00 | 24% |  |
| O=C(Nc1ccccc1N1CCCCC1)c1cc([N+](=O)[O-])ccn1 | < 6.00 | 90% |  |
| CC1CCN(c2ccccc2NC(=O)c2ccc([N+](=O)[O-])o2)CC1 |  |  | pIC50: > 6.00; inhibition at 10 µM: 92% |
| CCOc1ccccc1NC(=O)c1ccc([N+](=O)[O-])o1 | < 6.00 | 56% |  |
| N#Cc1ccc(C(=O)Nc2ccccc2N2CCCCC2)o1 | > 6.00 | 99% |  |
| C[C@H]1CN(c2ccccc2NC(=O)c2ccc([N+](=O)[O-])o2)C[C@H](C)O1 | < 6.00 | 80% |  |
| CC1CCCN(c2ccccc2NC(=O)c2ccc([N+](=O)[O-])o2)C1 (stereo not drawn) | > 6.00 | 96% |  |

More lines, main results first:

| pIC50 [2] | inhibition at 10 µM (at 10 μM compound) | SMILES | other results |
| --- | --- | --- | --- |
| > 6.00 | 100% | O=C(Nc1ccccc1N1CCC(CO)CC1)c1ccc([N+](=O)[O-])o1 |  |
| < 6.00 |  | N#Cc1ccc(C(=O)Nc2ccccc2N2CCC(O)CC2)o1 | inhibition at 2 µM: 90% |
| < 6.00 | 61% | O=C(Nc1ccccc1N1CCCCC1)c1n[nH]cc1[N+](=O)[O-] |  |
| > 6.00 |  | COc1ccc(N2CCCCC2)c(NC(=O)c2ccc(C#N)o2)c1 | inhibition at 2 µM: 99% |
| > 6.00 | 100% | O=C(Nc1ccccc1N1CCC(CCO)CC1)c1ccc([N+](=O)[O-])o1 |  |
| < 6.00 | 86% | O=Cc1ccc(C(=O)Nc2ccccc2N2CCCCC2)o1 |  |
| > 6.00 | 100% | O=C(Nc1ccccc1N1CCCCCC1)c1ccc([N+](=O)[O-])o1 |  |
| > 6.00 |  | N#Cc1ccc(C(=O)Nc2ccccc2N2CCC(CCO)CC2)o1 | inhibition at 2 µM: 97% |
| < 6.00 | 88% | O=C(Nc1ccccc1N1CCCCC1)c1ccc(Cl)o1 |  |
| > 6.00 |  | N#Cc1ccc(N2CCCCC2)c(NC(=O)c2ccc(C#N)o2)c1 | inhibition at 2 µM: 95% |
| > 6.00 | 97% | CC1CCN(c2ccccc2NC(=O)c2ccc(C#N)o2)CC1 |  |
| < 6.00 | 77% | O=C(Nc1ccccc1N1CCCCC1)c1cccc([N+](=O)[O-])c1 |  |
| < 6.00 | 72% | C[C@@H]1CN(c2ccccc2NC(=O)c2ccc([N+](=O)[O-])o2)C[C@H](C)O1 |  |
| > 6.00 |  | O=C(Nc1cc(F)ccc1N1CCCCC1)c1ccc([N+](=O)[O-])o1 |  |
| < 6.00 | 68% | O=C(Nc1ccccc1N1CCCCC1)c1ccc(Br)o1 |  |
| > 6.00 | 100% | O=C(Nc1cc(CO)ccc1N1CCCCC1)c1ccc([N+](=O)[O-])o1 |  |
